Measured values taken from EP0672419A1, “BLOOD PRESSURE REGULATOR” (Asahi Kasei Kogyo Kabushiki Kaisha, priority 1991, dated 1995).

System: Adult mongrel dog
Assay: Induced hypotension in halothane-anesthetized dog, mean arterial pressure kept at 50 mmHg for 60 min (Example 5)
Type: in vivo
Experimental: Adult mongrel dog, mean body weight 12.7 ± 3.1 kg, was anesthesized with pentobarbital 25 mg/kg, intratarcheally cannulated and maintained anesthetic condition by 0.87% halothane-oxygen (1 MAC, minimum anesthetic concentration). Respiration was controlled, by using respirator (Harvard Corp., Model 613E ) at Paco₂ 35±5 mmHg.
Catheters were introduced to right femoral vein and artery for monitering arterial blood pressure, arterial blood gas analysis and infusion, and left cardiac catheter was introduced to left femoral […] to monitor left ventricular pressure. The changes in left ventricular pressure were differentiated continuously using a pressure processor (Nihon Koden Co., EQ-601G) to measure a maximum left ventricular systolic ratio (LV dp/dt max). The active ingredient of the present invention was administered to left femoral vein. Pulmonary arterial catheter (7F, Swan-Ganz® catheter) was introduced through right external jugular vein to monitor pulmonary artery pressure (PAP), paulmonary arterial wedge pressure (pulmonary capillary wedge pressure, PCWP) and cardiac output (CO). Pressure was monitored by using disporsable pressure monitoring kit (Gould Corp.), and electrocardiogram, arteriala pressure, left ventricle pressure (LVP) and maximum left ventricular systolic ratio (LV dp/dt max) were monitored by polygraph (Nihon Koden Co.) . Cardiac output (CO) was measured by thermal dilution method using cardiac output monitor (Nihon Koden Co Model MTC6210). Blood gas analysis was made by using automatic blood gas analyser (Radiometer Corp. ABL3). Mean artery pressure (MAP), cardiac index(CI) stroke volume index (SI), systemic vascular resistance (SVR), pulmonary vascular resistance (PVR), left ventricle stroke work index (LVSWI) and coronary perfusion pressure (CPP) were calculated by standard calculation equations, respectively.
To maintain low blood pressure, the active ingredient was intraveneously administered for 60 minutes with maintaining maximum dose at 40 µg/kg and adjusting to maintain mean arteraial pressure at 50 mmHg. Physiological saline was used for maintenance infusion and administered in combination with the active ingredient at 7 ml/kg/hr. At blood sampling two fold volume of hydroxyethylstarch (6-HES) was supplementary administered. Body temperature was maintained at 37 ± 1°C by covering with blanket.
A value at time are than 60 minutes passed after completing the start of the experiment and stabilizing a depth of anesthesia and blood flow, is set as control (S₁). Monitorings were performed at 5 min., 30 min. and 60 min. under reduced blood pressure in induced hypotension, and at 10 min., 30 min. and 60 min. after terminating the reduced blood pressure in induced hypotension (after stopping administration), for totally seven points of time.

[1] = after administration 5min., i.v., MAP kept at 50 mmHg
[2] = after administration 30min., i.v., MAP kept at 50 mmHg
[3] = after administration 60min., i.v., MAP kept at 50 mmHg
[4] = after terminating administration 10min.
[5] = after terminating administration 30min.
[6] = after terminating administration 60min.

desalanyl-deamino-c-CGRP
CI: Cardiac index [1]: 4.65 1/min/m²
CO: Cardiac output [1]: 3.67 min⁻¹
CPP: Coronary perfusion pressure [1]: 45 mmHg
CVP: Central venous pressure [1]: 4 mmHg
DAP: Diastolic artery pressure [1]: 50 mmHg
DPAP: Diastolic pulmonary artery pressure [1]: 7 mmHg
EtCO₂: Expiration terminal CO₂ pressure [1]: 37 mmHg
HR: Heart rate [1]: 143 beat/min
LV dp/dt max: maximum left ventricular systolic ratio [1]: 3000 mmHg/sec
LVEP: Left ventricle end pressure [1]: 0 mmHg
LVP: Left ventricle pressure [1]: 102 mmHg
LVSWI: Left ventricle stroke work index [1]: 26.5 g.m/beat/m²
MAP: Mean artery pressure [1]: 65 mmHg
MPAP: Mean pulmonary artery pressure [1]: 16 mmHg
PCWP: Pulmonary capillary wedge pressure [1]: 5 mmHg
PVR: Pulmonary vascular resistance [1]: 255 dynes · sec/cm⁵
RPP: Rate pressure products [1]: 13200 mmHg.beat/min
RVSWI: Right ventricle stroke work index [1]: 5.30 g.m/beat/m²
SAP: Systolic artery pressure [1]: 93 mmHg
SI: Stroke index [1]: 32.5 ml/HR/m²
SPAP: Systolic pulmonary artery pressure [1]: 29 mmHg
SV: Stroke volumes [1]: 24 mL/beat
SVR: Systemic vascular resistance [1]: 1410 dynes · sec/cm⁵
CI: Cardiac index [2]: 4.24 1/min/m²
CO: Cardiac output [2]: 3.40 min⁻¹
CPP: Coronary perfusion pressure [2]: 29 mmHg
CVP: Central venous pressure [2]: 4 mmHg
DAP: Diastolic artery pressure [2]: 34 mmHg
DPAP: Diastolic pulmonary artery pressure [2]: 5 mmHg
EtCO₂: Expiration terminal CO₂ pressure [2]: 35 mmHg
HR: Heart rate [2]: 132 beat/min
LV dp/dt max: maximum left ventricular systolic ratio [2]: 2600 mmHg/sec
LVEP: Left ventricle end pressure [2]: 0 mmHg
LVP: Left ventricle pressure [2]: 86 mmHg
LVSWI: Left ventricle stroke work index [2]: 19.7 g.m/beat/m²
MAP: Mean artery pressure [2]: 50 mmHg
MPAP: Mean pulmonary artery pressure [2]: 12 mmHg
PCWP: Pulmonary capillary wedge pressure [2]: 5 mmHg
PVR: Pulmonary vascular resistance [2]: 177 dynes · sec/cm⁵
RPP: Rate pressure products [2]: 7650 mmHg.beat/min
RVSWI: Right ventricle stroke work index [2]: 3.50 g.m/beat/m²
SAP: Systolic artery pressure [2]: 58 mmHg
SI: Stroke index [2]: 32.2 ml/HR/m²
SPAP: Systolic pulmonary artery pressure [2]: 24 mmHg
SV: Stroke volumes [2]: 23.8 mL/beat
SVR: Systemic vascular resistance [2]: 1160 dynes · sec/cm⁵
CI: Cardiac index [3]: 4.95 1/min/m²
CO: Cardiac output [3]: 3.75 min⁻¹
CPP: Coronary perfusion pressure [3]: 37 mmHg
CVP: Central venous pressure [3]: 4 mmHg
DAP: Diastolic artery pressure [3]: 43 mmHg
DPAP: Diastolic pulmonary artery pressure [3]: 7 mmHg
EtCO₂: Expiration terminal CO₂ pressure [3]: 34 mmHg
HR: Heart rate [3]: 138 beat/min
LV dp/dt max: maximum left ventricular systolic ratio [3]: 2600 mmHg/sec
LVEP: Left ventricle end pressure [3]: 0 mmHg
LVP: Left ventricle pressure [3]: 95 mmHg
LVSWI: Left ventricle stroke work index [3]: 23.4 g.m/beat/m²
MAP: Mean artery pressure [3]: 50 mmHg
MPAP: Mean pulmonary artery pressure [3]: 15 mmHg
PCWP: Pulmonary capillary wedge pressure [3]: 6 mmHg
PVR: Pulmonary vascular resistance [3]: 196 dynes · sec/cm⁵
RPP: Rate pressure products [3]: 8000 mmHg.beat/min
RVSWI: Right ventricle stroke work index [3]: 5.37 g.m/beat/m²
SAP: Systolic artery pressure [3]: 58 mmHg
SI: Stroke index [3]: 35.9 ml/HR/m²
SPAP: Systolic pulmonary artery pressure [3]: 27 mmHg
SV: Stroke volumes [3]: 26.5 mL/beat
SVR: Systemic vascular resistance [3]: 1090 dynes · sec/cm⁵
CI: Cardiac index [4]: 4.33 1/min/m²
CO: Cardiac output [4]: 3.33 min⁻¹
CPP: Coronary perfusion pressure [4]: 41 mmHg
CVP: Central venous pressure [4]: 4 mmHg
DAP: Diastolic artery pressure [4]: 49 mmHg
DPAP: Diastolic pulmonary artery pressure [4]: 7 mmHg
EtCO₂: Expiration terminal CO₂ pressure [4]: 32 mmHg
HR: Heart rate [4]: 136 beat/min
LV dp/dt max: maximum left ventricular systolic ratio [4]: 3000 mmHg/sec
LVEP: Left ventricle end pressure [4]: 0 mmHg
LVP: Left ventricle pressure [4]: 110 mmHg
LVSWI: Left ventricle stroke work index [4]: 21.7 g.m/beat/m²
MAP: Mean artery pressure [4]: 58 mmHg
MPAP: Mean pulmonary artery pressure [4]: 15 mmHg
PCWP: Pulmonary capillary wedge pressure [4]: 8 mmHg
PVR: Pulmonary vascular resistance [4]: 174 dynes · sec/cm⁵
RPP: Rate pressure products [4]: 9240 mmHg.beat/min
RVSWI: Right ventricle stroke work index [4]: 4.77 g.m/beat/m²
SAP: Systolic artery pressure [4]: 68 mmHg
SI: Stroke index [4]: 31.9 ml/HR/m²
SPAP: Systolic pulmonary artery pressure [4]: 26 mmHg
SV: Stroke volumes [4]: 23.6 mL/beat
SVR: Systemic vascular resistance [4]: 1340 dynes · sec/cm⁵
CI: Cardiac index [5]: 4.07 1/min/m²
CO: Cardiac output [5]: 3.14 min⁻¹
CPP: Coronary perfusion pressure [5]: 46 mmHg
CVP: Central venous pressure [5]: 4 mmHg
DAP: Diastolic artery pressure [5]: 53 mmHg
DPAP: Diastolic pulmonary artery pressure [5]: 8 mmHg
EtCO₂: Expiration terminal CO₂ pressure [5]: 30 mmHg
HR: Heart rate [5]: 138 beat/min
LV dp/dt max: maximum left ventricular systolic ratio [5]: 3000 mmHg/sec
LVEP: Left ventricle end pressure [5]: 0 mmHg
LVP: Left ventricle pressure [5]: 110 mmHg
LVSWI: Left ventricle stroke work index [5]: 23.7 g.m/beat/m²
MAP: Mean artery pressure [5]: 66 mmHg
MPAP: Mean pulmonary artery pressure [5]: 15 mmHg
PCWP: Pulmonary capillary wedge pressure [5]: 7 mmHg
PVR: Pulmonary vascular resistance [5]: 211 dynes · sec/cm⁵
RPP: Rate pressure products [5]: 10900 mmHg.beat/min
RVSWI: Right ventricle stroke work index [5]: 4.42 g.m/beat/m²
SAP: Systolic artery pressure [5]: 79 mmHg
SI: Stroke index [5]: 29.5 ml/HR/m²
SPAP: Systolic pulmonary artery pressure [5]: 25 mmHg
SV: Stroke volumes [5]: 21.8 mL/beat
SVR: Systemic vascular resistance [5]: 1640 dynes · sec/cm⁵
CI: Cardiac index [6]: 4.14 1/min/m²
CO: Cardiac output [6]: 3.07 min⁻¹
CPP: Coronary perfusion pressure [6]: 54 mmHg
CVP: Central venous pressure [6]: 6 mmHg
DAP: Diastolic artery pressure [6]: 61 mmHg
DPAP: Diastolic pulmonary artery pressure [6]: 8 mmHg
EtCO₂: Expiration terminal CO₂ pressure [6]: 30 mmHg
HR: Heart rate [6]: 134 beat/min
LV dp/dt max: maximum left ventricular systolic ratio [6]: 3000 mmHg/sec
LVEP: Left ventricle end pressure [6]: 0 mmHg
LVP: Left ventricle pressure [6]: 111 mmHg
LVSWI: Left ventricle stroke work index [6]: 31.1 g.m/beat/m²
MAP: Mean artery pressure [6]: 95 mmHg
MPAP: Mean pulmonary artery pressure [6]: 16 mmHg
PCWP: Pulmonary capillary wedge pressure [6]: 7 mmHg
PVR: Pulmonary vascular resistance [6]: 234 dynes · sec/cm⁵
RPP: Rate pressure products [6]: 13600 mmHg.beat/min
RVSWI: Right ventricle stroke work index [6]: 4.21 g.m/beat/m²
SAP: Systolic artery pressure [6]: 102 mmHg
SI: Stroke index [6]: 30.9 ml/HR/m²
SPAP: Systolic pulmonary artery pressure [6]: 26 mmHg
SV: Stroke volumes [6]: 22.9 mL/beat
SVR: Systemic vascular resistance [6]: 1950 dynes · sec/cm⁵
